# From patent publication US20250340560A1, “SUBSTITUTED PYRAZOLO[1,5-a]PYRIMIDINES AS BRUTON'S TYROSINE KINASE MODULATORS” (BEIGENE SWITZERLAND GMBH, priority 2013, published 2025)
# Structures can show the parent of a compound that is named as a salt.
# Target: Recombinant Btk (Homo sapiens (Human), UniProt Q06187)
# Test: BTK kinase assay (TR-FRET)
# Conditions: IC50 (nM) Btk, 1 hour pre-incubation, ATP at Km
# Recombinant Btk, sequence (Q06187 whole entry): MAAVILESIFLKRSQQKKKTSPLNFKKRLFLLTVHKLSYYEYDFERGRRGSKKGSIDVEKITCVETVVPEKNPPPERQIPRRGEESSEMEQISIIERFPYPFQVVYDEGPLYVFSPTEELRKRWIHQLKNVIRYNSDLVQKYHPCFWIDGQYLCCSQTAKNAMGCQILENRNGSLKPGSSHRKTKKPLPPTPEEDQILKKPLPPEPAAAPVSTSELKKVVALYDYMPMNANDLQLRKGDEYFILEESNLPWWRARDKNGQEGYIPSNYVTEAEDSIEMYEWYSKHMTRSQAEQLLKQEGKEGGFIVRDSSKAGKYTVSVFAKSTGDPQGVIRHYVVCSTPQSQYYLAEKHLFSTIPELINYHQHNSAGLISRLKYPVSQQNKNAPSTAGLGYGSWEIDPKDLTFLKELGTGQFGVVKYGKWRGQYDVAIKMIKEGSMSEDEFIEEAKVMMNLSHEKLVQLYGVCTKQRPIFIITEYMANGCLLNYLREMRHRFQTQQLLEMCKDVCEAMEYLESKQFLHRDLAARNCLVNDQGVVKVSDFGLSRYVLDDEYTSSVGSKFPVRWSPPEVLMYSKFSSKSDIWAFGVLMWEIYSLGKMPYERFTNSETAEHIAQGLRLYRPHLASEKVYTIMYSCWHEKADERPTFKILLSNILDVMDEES
row,SMILES,IC50 [nM]
1,"C=CC(=O)Nc1ccccc1C1CCNc2c(C(N)=O)c(-c3ccc(OCc4ccccc4)cc3)nn21 (single isomer, unassigned) [Compound 10b]",42

# Same assay, conditions: read-out: IC50 (nM) Btk; 1 hour pre-incubation, ATP at Km
row,SMILES,IC50 [nM]
1,"C=CC(=O)N1CCC(C2CCNc3c(C(N)=O)c(-c4ccccc4)nn32)CC1 (stereo not shown) [Compound 144, 7-(1-acryloylpiperidin-4-yl)-2-phenyl-4,5,6,7-tetrahydropyrazolo[1,5-a]pyrimidine-3-carboxamide trifluoroacetate]",140
2,"N#CCC(=O)N1CCC([C@@H]2CCNc3c(C(N)=O)c(-c4ccc(Oc5ccccc5)cc4)nn32)CC1 [Compound 180, (S)-7-(1-(2-Cyanoacetyl)piperidin-4-yl)-2-(4-phenoxyphenyl)-4,5,6,7-tetrahydropyrazolo[1,5-a]pyrimidine-3-carboxamide]",87
3,"C=CC(=O)Nc1ccc(Cl)c(C2CCNc3c(C(N)=O)c(-c4ccc(Oc5ccccc5)cc4)nn32)c1 (stereo not shown) [Compound 96, 7-(5-acrylamido-2-chlorophenyl)-2-(4-phenoxyphenyl)-4,5,6,7-tetrahydropyrazolo[1,5-a]pyrimidine-3-carboxamide]",30
4,"C=CC(=O)NCC1CCNc2c(C(N)=O)c(-c3ccc(OCC4CC4)cc3)nn21 (stereo not shown) [Compound 113, 7-(acrylamidomethyl)-2-(4-(cyclopropylmethoxy)phenyl)-4,5,6,7-tetrahydropyrazolo[1,5-a]pyrimidine-3-carboxamide]",94
5,"NC(=O)c1c(-c2ccc(F)c(Cl)c2)nn2c1NCCC2c1ccccc1NC(=O)/C=C/CN1CCCCC1 (stereo not shown) [Compound 153, (E)-2-(3-Chloro-4-fluorophenyl)-7-(2-(4-(piperidin-1-yl)but-2-enamido)phenyl)-4,5,6,7-tetrahydropyrazolo[1,5-a]pyrimidine-3-carboxamide]",6.1
6,"C=CC(=O)N1CCC(C2CCNc3c(C(N)=O)c(-c4ccc(C)c(OC)c4)nn32)CC1 (stereo not shown) [Compound 174, 7-(1-Acryloylpiperidin-4-yl)-2-(3-methoxy-4-methylphenyl)-4,5,6,7-tetrahydropyrazolo[1,5-a]pyrimidine-3-carboxamide]",4.8
7,"COCC#CC(=O)N1CCC([C@@H]2CCNc3c(C(N)=O)c(-c4ccc(Oc5ccccc5)cc4)nn32)CC1 [Compound 192, (S)-7-(1-(4-Methoxybut-2-ynoyl)piperidin-4-yl)-2-(4-phenoxyphenyl)-4,5,6,7-tetrahydropyrazolo[1,5-a]pyrimidine-3-carboxamide]",0.91
8,"C=CC(=O)Nc1ccccc1C1CCNc2c(C(N)=O)c(-c3ccc(F)c(Br)c3)nn21 (stereo not shown) [Compound 152, 7-(2-Acrylamidophenyl)-2-(3-bromo-4-fluorophenyl)-4,5,6,7-tetrahydropyrazolo[1,5-a]pyrimidine-3-carboxamide]",1.2
9,NC(=O)c1c(-c2ccc(Oc3ccccc3)cc2)nn2c1NC[C@H]1CNC[C@H]12 (relative stereo) [Compound 115],8200
10,"C=CC(=O)N1CCCC1C1CCNc2c(C(N)=O)c(-c3ccc(Oc4ccccc4)cc3)nn21 (stereo not shown) [Compound 103, 7-(1-acryloylpyrrolidin-2-yl)-2-(4-phenoxyphenyl)-4,5,6,7-tetrahydropyrazolo[1,5-a]pyrimidine-3-carboxamide]",1.1
11,"NC(=O)c1c(-c2ccc(Oc3ccccc3)cc2)nn2c(-c3cccc(N)c3)c[nH]c12 [Compound 49, 3-(3-Aminophenyl)-6-(4-phenoxyphenyl)-1H-pyrazolo[1,5-a]imidazole-7-carboxamide]",29
12,"CC#CC(=O)N1CC(C2CCNc3c(C(N)=O)c(-c4ccc(Oc5ccc(F)cc5F)cc4)nn32)C1 (stereo not shown) [Compound 189, 7-(1-(But-2-ynoyl)azetidin-3-yl)-2-(4-(2,4-difluorophenoxy)phenyl)-4,5,6,7-tetrahydropyrazolo[1,5-a]pyrimidine-3-carboxamide]",42
13,"NC(=O)c1c(-c2ccc(Oc3ccccc3)cc2)nn2c1[nH]c1cnccc12 [Compound 61, 2-(4-Phenoxyphenyl)-4H-pyrazolo[1′,5′:1,2]imidazo[4,5-c]pyridine-3-carboxamide]",140
14,"COc1cc(-c2nn3c(c2C(N)=O)NCCC3c2ccccc2NC(=O)/C=C/CN(C)C)ccc1C (stereo not shown) [Compound 165, (E)-7-(2-(4-(Dimethylamino)but-2-enamido)phenyl)-2-(3-methoxy-4-methylphenyl)-4,5,6,7-tetrahydropyrazolo[1,5-a]pyrimidine-3-carboxamide]",1.6
15,"C=CC(=O)N1CCC2[C@H](CNc3c(C(N)=O)c(-c4ccc(Oc5ccccc5)cc4)nn32)C1 (single isomer, unassigned) [Compound 30b]",16
16,"C=CC(=O)Nc1ccccc1C1CCNc2c(C(N)=O)c(-c3ccc(F)c(C)c3)nn21 (stereo not shown) [Compound 157, 7-(2-Acrylamidophenyl)-2-(4-fluoro-3-methylphenyl)-4,5,6,7-tetrahydropyrazolo[1,5-a]pyrimidine-3-carboxamide]",0.38
17,"NC(=O)c1c(-c2ccc(Oc3ccccc3)cc2)nn2c3c([nH]c12)CCNC3 [Compound 51, 2-(4-Phenoxyphenyl)-5,6,7,8-tetrahydro-4H-pyrazolo[5′,1′:2,3]imidazo[4,5-c]pyridine-3-carboxamide trifluoroacetate]",310

row,SMILES,IC50 [nM]
1,"C=CC(=O)Nc1ccccc1C1CCNc2c(C(N)=O)c(-c3ccccc3)nn21 (stereo not shown) [Compound 150, 7-(2-Acrylamidophenyl)-2-phenyl-4,5,6,7-tetrahydropyrazolo[1,5-a]pyrimidine-3-carboxamide]",4.7
2,"NCC1CCNc2c(C(N)=O)c(-c3cnn(Cc4ccccc4)c3)nn21 (stereo not shown) [Compound 36, 7-(Aminomethyl)-2-(1-benzyl-1H-pyrazol-4-yl)-4,5,6,7-tetrahydro pyrazolo[1,5-a]pyrimidine-3-carboxamide trifluoroacetate]",> 10000
3,"C=CC(=O)N1CCc2[nH]c3c(C(N)=O)c(-c4ccc(OCC5CC5)cc4)nn3c2C1 [Compound 127, 7-acryloyl-2-(4-(cyclopropylmethoxy)phenyl)-5,6,7,8-tetrahydro-4H-pyrazolo[5′,1′:2,3]imidazo[4,5-c]pyridine-3-carboxamide]",300
4,"NC(=O)c1c(-c2ccc(Oc3ccccc3)cc2)nn2c1NCCC21CCN(Cc2ccccc2)CC1 [Compound 41, 1-Benzyl-2′-(4-phenoxyphenyl)-5′,6′-dihydro-4′H-spiro[piperidine-4,7′-pyrazolo[1,5-a]pyrimidine]-3′-carboxamide]",180
5,"C=CC(=O)Nc1ccccc1C1CCNc2c(C(N)=O)c(-c3cccc(Cl)c3)nn21 (stereo not shown) [Compound 155, 7-(2-Acrylamidophenyl)-2-(3-chlorophenyl)-4,5,6,7-tetrahydropyrazolo[1,5-a]pyrimidine-3-carboxamide]",0.96
6,"NC(=O)c1c(-c2ccc(Oc3ccccc3)cc2)nn2c1NCCc1cc([N+](=O)[O-])ccc1-2 [Compound 70, 8-Nitro-2-(4-phenoxyphenyl)-5,6-dihydro-4H-benzo[f]pyrazolo[1,5-a][1,3]diazepine-3-carboxamide]",19
7,"C=CC(=O)N1CC(C2CCNc3c(C(N)=O)c(-c4ccc(Oc5ccc(Cl)cc5)cc4)nn32)C1 (stereo not shown) [Compound 106, 7-(1-acryloylazetidin-3-yl)-2-(4-(4-chlorophenoxy)phenyl)-4,5,6,7-tetrahydropyrazolo[1,5-a]pyrimidine-3-carboxamide]",1.4
8,"C=CC(=O)N1CC(C2CCNc3c(C(N)=O)c(-c4ccc(Oc5ccccc5)c(Cl)c4)nn32)C1 (stereo not shown) [Compound 139, 7-(1-acryloylazetidin-3-yl)-2-(3-chloro-4-phenoxyphenyl)-4,5,6,7-tetrahydropyrazolo[1,5-a]pyrimidine-3-carboxamide]",0.44
9,"NC(=O)c1c(-c2ccc(Oc3ccccc3)cc2)nn2c1NCC[C@H]2C1CCN(C(=O)C#CCO)CC1 [Compound 191, (S)-7-(1-(4-Hydroxybut-2-ynoyl)piperidin-4-yl)-2-(4-phenoxyphenyl)-4,5,6,7-tetrahydropyrazolo[1,5-a]pyrimidine-3-carboxamide]",0.67
10,"NC(=O)c1c(-c2ccc(Oc3ccccc3)cc2)nn2c1[nH]c(=O)c1cc([N+](=O)[O-])ccc12 [Compound 76, 7-Nitro-5-oxo-2-(4-phenoxyphenyl)-4,5-dihydropyrazolo[1,5-a]quinazoline-3-carboxamide]",5500
11,"NC(=O)c1c(-c2ccc(Oc3ccccc3)cc2)nn2c1NCC21CN(Cc2ccccc2)C1 [Compound 44, 1-Benzyl-6′-(4-phenoxyphenyl)-1′,2′-dihydrospiro[azetidine-3,3′-imidazo[1,2-b]pyrazole]-7′-carboxamide]",220
12,"NC(=O)c1c(-c2ccc(Oc3ccccc3)cc2)nn2c1NCC[C@H]2C1CCN(C(=O)CCCl)CC1 [Compound 177, (S)-7-(1-(3-chloropropanoyl)piperidin-4-yl)-2-(4-phenoxyphenyl)-4,5,6,7-tetrahydropyrazolo[1,5-a]pyrimidine-3-carboxamide]",5.7
13,"C=CC(=O)Nc1ccccc1C1CCNc2c(C(N)=O)c(-c3ccc(OC4CCOCC4)cc3)nn21 (stereo not shown) [Compound 24, 7-(2-Acrylamidophenyl)-2-(4-(tetrahydro-2H-pyran-4-yloxy)phenyl)-4,5,6,7-tetrahydropyrazolo[1,5-a]pyrimidine-3-carboxamide]",39
14,"NC(=O)c1c(-c2ccc(Oc3ccccc3)cc2)nn2c1NCCC2c1cccc(N)c1 (stereo not shown) [Compound 2, 7-(3-Aminophenyl)-2-(4-phenoxyphenyl)-4,5,6,7-tetrahydropyrazolo [1,5-a]pyrimidine-3-carboxamide]",360
15,"CC#CC(=O)N1CC(C2CCNc3c(C(N)=O)c(-c4ccc(Oc5ccccc5)cc4)nn32)C1 (stereo not shown) [Compound 184, 7-(1-(But-2-ynoyl)azetidin-3-yl)-2-(4-phenoxyphenyl)-4,5,6,7-tetrahydropyrazolo[1,5-a]pyrimidine-3-carboxamide]",4.7
16,"NC(=O)c1c(-c2ccc(Oc3ccccc3)cc2)nn2c1NCC(c1cccc(N)c1)C2 (stereo not shown) [Compound 90, 6-(3-Aminophenyl)-2-(4-phenoxyphenyl)-4,5,6,7-tetrahydropyrazolo[1,5-a]pyrimidine-3-carboxamide]",1900
